This is an account of results in article PMC5982655, “Interaction of the New Monofunctional Anticancer Agent Phenanthriplatin With Transporters for Organic Cations” (Frontiers in Chemistry, 2018).

Assay [1] relates to HEK 293 hOCT2 cells. The assay can be described thus: MTT cell viability, HEK 293 hOCT2 cells. The conditions noted are these: HEK 293 hOCT2, cimetidine alone (10 or 100 μM), 10 min. In kind it is cell-based, human. As to the method: (§1) A modified 3-(4,5-dimethylthiazol-2-yl)-2,5-diphenyltetrazolium bromide (MTT) assay (Mosmann, [1983]) was used to test the chemosensitivity of cells to phenanthriplatin and, in some experiments, to cisplatin by determining the glycolysis rate via the reduction of the yellow tetrazolium salt MTT to a purple formazan dye, as previously described (Wehe et al., [2014]). Briefly, after growing for 24 h in the incubator, cells expressing or not hOCT2, hMATE1, hMATE2 or Ctr1 were treated for 10 min with platinum derivatives. Control cells were incubated with drug-free complete cell culture medium. Afterwards, the medium was carefully removed and replaced by 200 μL of fresh complete cell culture medium. After incubation for another 24 h, 10 μL of MTT solution containing 5 mg/mL of the dye were added to each well, and the cells were again incubated for 3 h. The medium was then removed and 100 μL of lysis buffer containing 10% (w/v) sodium dodecyl sulfate and 40% (v/v) dimethylformamide was added to each well. The plates were shaken for 10 min to destroy the cell structure and dissolve the blue formazan dye (Furchert et al., [2007]; Wehe et al., [2014]). Finally, the absorbance was measured at 590 nm using an automated microtiter plate reader (Infinite M200; Tecan, Männedorf, Switzerland). The percentage of viable cells in the untreated controls was compared to that for the various treatments. Experiments carried out with DAOY and UW228 cells followed a similar protocol except that these cells were incubated for 24 h with phenanthriplatin.

Assay [2] concerns the target T1, hMATE1 (Homo sapiens, UniProt Q96FL8).
T1 construct: expressed in transfected cells
T1 sequence (Q96FL8 1-570): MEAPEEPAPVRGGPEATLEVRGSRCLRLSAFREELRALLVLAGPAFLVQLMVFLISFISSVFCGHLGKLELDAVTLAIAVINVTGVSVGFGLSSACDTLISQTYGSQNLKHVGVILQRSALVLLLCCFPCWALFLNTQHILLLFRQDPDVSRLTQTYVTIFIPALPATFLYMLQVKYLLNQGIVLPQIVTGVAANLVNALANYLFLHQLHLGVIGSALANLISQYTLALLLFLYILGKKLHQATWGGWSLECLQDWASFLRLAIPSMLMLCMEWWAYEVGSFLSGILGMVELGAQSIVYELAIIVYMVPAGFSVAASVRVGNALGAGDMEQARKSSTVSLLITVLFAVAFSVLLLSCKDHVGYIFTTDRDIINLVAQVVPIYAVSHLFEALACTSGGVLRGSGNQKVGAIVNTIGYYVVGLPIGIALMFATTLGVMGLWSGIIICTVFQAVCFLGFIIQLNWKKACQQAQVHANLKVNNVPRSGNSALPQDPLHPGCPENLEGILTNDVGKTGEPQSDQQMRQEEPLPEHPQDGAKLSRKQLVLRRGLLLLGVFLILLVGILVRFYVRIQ
The arrangement: method as in Astorga et al., [2012]. The conditions noted are these: ref Astorga et al., [2012]; cited from earlier work.

The target in assay [3] is T2, hMATE2K (Homo sapiens, UniProt Q86VL8).
T2 construct: expressed in transfected cells
T2 sequence (Q86VL8 1-566 isoform Q86VL8-3): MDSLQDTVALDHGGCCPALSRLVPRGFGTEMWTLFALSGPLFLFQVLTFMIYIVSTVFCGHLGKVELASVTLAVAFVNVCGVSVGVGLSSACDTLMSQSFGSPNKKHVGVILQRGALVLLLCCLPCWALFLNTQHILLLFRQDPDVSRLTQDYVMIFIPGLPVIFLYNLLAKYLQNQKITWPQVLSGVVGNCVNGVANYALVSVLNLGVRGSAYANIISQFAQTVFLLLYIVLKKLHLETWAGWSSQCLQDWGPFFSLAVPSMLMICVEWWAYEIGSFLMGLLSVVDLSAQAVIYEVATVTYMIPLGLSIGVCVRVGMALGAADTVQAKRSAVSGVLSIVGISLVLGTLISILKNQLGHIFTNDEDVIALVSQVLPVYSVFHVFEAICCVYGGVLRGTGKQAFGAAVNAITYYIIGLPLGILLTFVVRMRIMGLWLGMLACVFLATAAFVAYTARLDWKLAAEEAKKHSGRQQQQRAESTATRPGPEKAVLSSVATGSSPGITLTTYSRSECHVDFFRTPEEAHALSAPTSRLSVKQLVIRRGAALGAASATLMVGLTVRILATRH
The arrangement: method as in Astorga et al., [2012]. As to conditions: ref Astorga et al., [2012]; cited from earlier work.

For assay [4], the target named is T3, hOCT1 (Homo sapiens, UniProt O15245).
T3 construct: expressed in transfected cells; gift of H. Koepsell
T3 sequence (O15245 1-554): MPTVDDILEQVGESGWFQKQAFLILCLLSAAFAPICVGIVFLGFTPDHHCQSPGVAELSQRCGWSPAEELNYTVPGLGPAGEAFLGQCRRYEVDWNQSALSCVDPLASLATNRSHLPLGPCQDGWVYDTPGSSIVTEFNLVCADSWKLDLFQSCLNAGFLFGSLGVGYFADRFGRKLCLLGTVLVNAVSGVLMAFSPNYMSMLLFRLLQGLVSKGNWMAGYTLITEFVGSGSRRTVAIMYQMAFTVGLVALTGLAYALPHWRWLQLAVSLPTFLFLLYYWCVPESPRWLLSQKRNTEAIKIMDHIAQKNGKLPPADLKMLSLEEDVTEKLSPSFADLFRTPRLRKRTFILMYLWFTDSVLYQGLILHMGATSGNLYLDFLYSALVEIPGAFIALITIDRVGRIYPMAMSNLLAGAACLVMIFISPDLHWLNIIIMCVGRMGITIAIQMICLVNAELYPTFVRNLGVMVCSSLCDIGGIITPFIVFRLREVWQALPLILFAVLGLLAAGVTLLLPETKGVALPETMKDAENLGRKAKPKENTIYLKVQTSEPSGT
The assay can be described thus: Inhibition of ASP+ uptake in HEK 293 cells expressing hOCT1. In kind it is cell-based. As to conditions: HEK 293 hOCT1, 1 μM ASP+. The protocol:
(§2) The interaction of phenanthriplatin with transporters for organic cations (OCT1-3, MATE1, and MATE2K) was investigated by measuring its effects on the uptake of the fluorescent organic cation 4-(4-dimethylamino)styryl-N-methylpyridinium (ASP^+). Microfluorometric measurements of ASP^+ uptake were performed with a fluorescence plate reader (Infinity 200, Tecan, Crailsheim, Germany; excitation at 465 nm, emission at 590 nm) as described previously for cultured HEK 293 cells (Wilde et al., [2009]). Before measurements, the culture medium in the wells of the 96 well microtiter plate containing HEK 293 cells was replaced by a HCO3- -free Ringer-like solution containing (in mM) NaCl 145, K2HPO4 1.6, KH2PO4 0.4, D-glucose 5, MgCl2 1, calcium gluconate 1.3, and pH adjusted to 7.4. Fluorescence was measured dynamically at 37°C in each well before and after ASP^+ addition to HCO3- -free Ringer-like solution, alone or together with increasing phenanthriplatin concentrations, and plotted versus time. ASP^+ (final concentration 1 or 10 μM for experiments with OCTs or MATEs, respectively) was added after the third sampling interval. Emission from the complete area of the well bottom was analyzed four times and averaged for each well. […] Background fluorescence was measured for each plate in wells with identical solutions containing no cells and subtracted from each well containing cells. Experiments were performed with cells from one passage of the same day with controls and test replicates in the same plate.
(§3) Data are presented as mean values ± SEM, with (n) referring to the number of wells. IC50 values defined as the concentration of platinum agent required to inhibit uptake of ASP^+ by 50% and EC50 values used to assess cell viability were obtained by sigmoidal concentration-response curve fitting using GraphPad Prism, Version 5.3 (GraphPad Software, San Diego, USA). […] For multiple comparisons, ANOVA with Bonferroni post-test was used. A P-value < 0.05 was considered statistically significant.

Assay [5] addresses T1, hMATE1. The assay can be described thus: Inhibition of ASP+ uptake in HEK 293 cells expressing hMATE1. In kind it is cell-based. As to conditions: inhibition of ASP+ uptake, HEK293 hMATE1, Supplementary Figure 1. The protocol:
as §2, §3

In assay [6] the target is T4, hOCT2 (Homo sapiens, UniProt O15244).
T4 construct: expressed in transfected cells; gift of H. Koepsell
T4 sequence (O15244 1-555): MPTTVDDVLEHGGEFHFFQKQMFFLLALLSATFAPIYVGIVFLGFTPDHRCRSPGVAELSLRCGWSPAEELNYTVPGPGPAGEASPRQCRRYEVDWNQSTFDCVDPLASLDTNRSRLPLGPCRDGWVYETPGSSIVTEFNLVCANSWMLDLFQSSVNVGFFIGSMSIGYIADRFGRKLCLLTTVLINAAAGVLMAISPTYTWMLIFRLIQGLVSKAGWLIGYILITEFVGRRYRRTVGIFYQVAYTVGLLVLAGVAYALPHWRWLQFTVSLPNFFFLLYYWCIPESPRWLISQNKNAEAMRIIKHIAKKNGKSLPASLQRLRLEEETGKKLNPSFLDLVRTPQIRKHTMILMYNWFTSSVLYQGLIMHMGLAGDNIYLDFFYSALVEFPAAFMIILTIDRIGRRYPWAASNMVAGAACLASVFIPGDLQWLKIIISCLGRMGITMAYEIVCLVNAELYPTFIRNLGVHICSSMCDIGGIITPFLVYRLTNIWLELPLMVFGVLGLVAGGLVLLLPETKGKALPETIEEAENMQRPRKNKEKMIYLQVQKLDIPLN
Kind of assay: Inhibition of ASP+ uptake in HEK 293 cells expressing hOCT2. The class given is cell-based. The conditions noted are these: HEK 293 hOCT2, 1 μM ASP+. As to the method:
as §2, §3

In assay [7] the test system is Ctr1^+/+ MEFs. The assay can be described thus: MTT cell viability, Ctr1+/+ MEFs. As to conditions: 1 mM, 10 min. In kind it is cell-based, mouse. As to the method: as §1
Assay [8] concerns Ctr1^−/− MEFs. The assay can be described thus: MTT cell viability, Ctr1-/- MEFs. In kind it is cell-based, mouse. The conditions noted are these: 1 mM, 10 min. The protocol:
as §1

With `CN/C(=N/CCSCc1nc[nH]c1C)NC#N` [Cimetidine, cimetidine, reference compound], the “Cell viability (MTT)” value in assay [1] is recorded as “no significant effect on cell viability”.

Take `C[n+]1ccc(-c2ccccc2)cc1` [MPP^+, 1-methyl-4-phenylpyridinium]: the “Affinity for hMATE1” value in assay [2] was 4.7 µM. Moreover, the “Affinity for hMATE2K” value in assay [3] is 3.3 µM.

Take `N.N.[Cl][Pt][Cl]` [cisplatin, reference compound]: the IC50 worked out at 61 µM in assay [4] and 50 µM in assay [6]. The “Interaction (affinity) with hMATE1” value in assay [5] was “very low affinity”. The results for the “Cell viability (MTT)” value in assay [7] and in assay [8] were “toxic to Ctr1^+/+” and “no decrease in cell viability”, respectively.

One may read the IC50 as the concentration at which inhibition is half-maximal. A lower IC50 goes with greater potency.
